Experimental data reported in PMC12002301, “Discovery and functional characterization of a bombesin-type neuropeptide signaling system in an invertebrate” (Proceedings of the National Academy of Sciences of the …, 2025).

Tests used:
tube foot preparations = experiment: In vitro contraction of tube foot preparations; design: species or system Asterias rubens; conditions: words, ArBN 10^-9 to 10^-6 M
Procedure: (§1) ArBN (EPRRNYNRVFGPTY-NH2), ArBN5-14 (NYNRVFGPTY-NH2), and ArBNP65-81 (EPMPSSLALYIANLSP-NH2), were tested for effects on in vitro cardiac stomach and tube foot preparations from A. rubens. The preparations were dissected as described previously ([43], [59]–[61]), with the organs immersed in ice-cold artificial seawater during dissection. A description of the methods employed for investigation of in vitro effects of ArBN on cardiac stomach and tube foot preparations from A. rubens is included in SI Appendix, SI Methods. […]
(§2) Wax was removed from slides using xylene (3 × 10 min) and then slides were immersed in 100% ethanol (2 × 10 min). 0.3% hydrogen peroxide (VWR Chemicals, UK) in methanol was used to quench endogenous peroxidases for 30 min and then an ethanol series (90%, 70%, 50%), distilled water and PBST were used to rehydrate the tissue sections. 5% goat serum (Sigma-Aldrich, UK) made up in PBST was used for blocking for 2 h at room temperature. […]
(§3) All the dissected preparations were set up in an aerated organ bath filled with 20 ml artificial seawater maintained at approximately 11°C. Changes in the contractile state of preparations were detected by the transducer, which was linked via a bridge amplifier (FE221 Bridge Amp, ADInstruments Ltd, Oxford, UK) to data acquisition hardware (PowerLab 2/36, ADInstruments Ltd, Oxford, UK). […]

[1] = system: cardiac stomach preparations; experiment: In vitro contraction of cardiac stomach preparations; design: species or system Asterias rubens; conditions: words, ArBN 10^-9 to 10^-6 M
Procedure: as §1, §2, §3

| Substance | effect on tube foot preparations (tube foot preparations) | effect on cardiac stomach preparations [1] |
| --- | --- | --- |
| EPMPSSLALYIANLSP-NH2 [ArBNP65-81, C-terminally amidated 16-residue peptide predicted to be derived from residues 65 to 81 of ArBNP] | neither ArBN5-14 nor ArBNP65-81 had any observable effect | neither ArBN5-14 nor ArBNP65-81 had any observable effect |
| NYNRVFGPTY-NH2 [ArBN5-14, C-terminally amidated 10-residue peptide corresponding to the C-terminal region of ArBN] | neither ArBN5-14 nor ArBNP65-81 had any observable effect | neither ArBN5-14 nor ArBNP65-81 had any observable effect |
